Patent US6906074B2, “2-phenylpiperazine derivatives” (Nippon Zoki Pharmaceutical Co., Ltd., priority 2002, dated 2005)
Marks after values point to notes of the source that are not given here.

How the values were obtained:
human NK1 receptors = human NK1 receptors (Homo sapiens, UniProt P25103); experiment: Binding assay for human NK1 receptors ((3H)-Sar9-SP, human NK1-CHO cells)
[1] = tested on: Substance P-induced increase of vascular permeability (tachykinin receptor); experiment: Substance P-induced increase of vascular permeability in guinea pig skin (Evans Blue dye); type: in vivo, guinea pigs; details: Substance P 1 pmole/site, 10 mg/kg oral
Method: (§1) The compounds of the present invention and synthesized LY-303870 were suspended or dissolved in 0.5% sodium carboxymethylcellulose solution, and orally administered at the dose of 5 mL/kg. to male Hartley SPF guinea pigs of 6 week age.
(§2) Guinea pigs, sheared of fur, were anesthetized with ether and 1% Evan Blue dye in physiological saline (1 mL/500 g b.w.) was injected into their fore-leg intravenously. Immediately after the dye injection, SP (1 pmol/site), NKA (100 pmol/site) and NKB (100 pmol/site) in physiological saline were injected dorsal intradermally (0.05 mL/site) whereby the reaction of increase of vascular permeability was induced. Half an hour after tachykinin challenge, the animals were sacrificed by decapitation and bloodletting, and the dorsal skin was removed and the amount of transuded blue dye thereof was measured. Namely, the blue dyed sites were punched out using a punch for leather (16 mm diameter), of which 2 pieces were allowed to stand at 37° C. overnight in a covered tube with addition of 1 mL of 2 mol/L KOH solution. After stirring well, 6 mL of a mixture of 2 mol/L H3PO4 solution and acetone (1:3) were added thereto and Evans Blue dye was extracted by vigorous shaking for 10 minutes. After the precipitate was filtered off, the absorbance of the filtrate was measured at 620 nm with a spectrophotometer and the amount of dye was determined from the calibration curve. Nonspecific reaction was estimated from the amount of transuded dye by the injection of physiological saline. The significant difference in the average values between the control group and the test compound-treated group was calculated by means of a Student's t-test or Dunnett's test (Statistical Library I, two-sided test, Yukms).
(§3) The tested compounds were orally administered at a dose of 10 mg/kg at various points from 30 min to 8 hrs before the induction of tachykinin-induced increase of vascular permeability. An example of the results is shown in Table 2 (* and ** stand for the significant difference of p<0.05 and p<0.01 respectively compared to control).

[2] = tested on: Neurokinin A-induced increase of vascular permeability (tachykinin receptor); experiment: Neurokinin A-induced increase of vascular permeability in guinea pig skin (Evans Blue dye); type: in vivo, guinea pigs; details: Neurokinin A 100 pmole/site, 10 mg/kg oral
Method: as §1, §2, §3

[3] = tested on: Neurokinin B-induced increase of vascular permeability (tachykinin receptor); experiment: Neurokinin B-induced increase of vascular permeability in guinea pig skin (Evans Blue dye); type: in vivo, guinea pigs; details: Neurokinin B 100 pmole/site, 10 mg/kg oral
Method: as §1, §2, §3

[4] = 0.5 hr from administration to induction
[5] = 1 hr from administration to induction
[6] = 2 hr from administration to induction
[7] = 4 hr from administration to induction
[8] = 8 hr from administration to induction
[9] = 3 hr from administration to induction

Sequence of human NK1 receptors (P25103 whole entry): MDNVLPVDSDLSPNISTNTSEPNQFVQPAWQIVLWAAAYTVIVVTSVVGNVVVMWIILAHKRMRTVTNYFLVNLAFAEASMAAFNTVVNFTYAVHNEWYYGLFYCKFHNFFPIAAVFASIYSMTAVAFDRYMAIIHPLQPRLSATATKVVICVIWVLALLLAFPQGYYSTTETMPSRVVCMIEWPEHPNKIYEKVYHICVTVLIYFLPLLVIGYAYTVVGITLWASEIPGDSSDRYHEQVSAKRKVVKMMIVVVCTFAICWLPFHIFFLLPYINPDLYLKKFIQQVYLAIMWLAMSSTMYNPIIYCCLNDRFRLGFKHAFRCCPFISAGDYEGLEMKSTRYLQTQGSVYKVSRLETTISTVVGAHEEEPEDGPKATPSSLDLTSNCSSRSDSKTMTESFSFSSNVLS

In the case of `CN(C)Cc1[nH]nnc1CN1CC(=O)N[C@H](COCc2cc(C(F)(F)F)cc(C(F)(F)F)c2)[C@@H]1c1ccc(F)cc1.Cl.Cl`, the melting point is reported as 213 to 216 °C.
Work on `CN(C)Cc1[nH]nnc1CN1CC(=O)N(C)[C@H](COCc2cc(C(F)(F)F)cc(C(F)(F)F)c2)[C@@H]1c1ccc(F)cc1.Cl.Cl` yielded a melting point of 142 to 145 °C.
In the case of `Cl.O=C1CN[C@@H](c2ccccc2)[C@@H](COCc2cc(C(F)(F)F)cc(C(F)(F)F)c2)N1`, the melting point is reported as 219 to 221 °C.
Molecule `O=C1CN(Cc2n[nH]c(=O)[nH]2)[C@@H](c2ccccc2)[C@@H](COCc2cc(C(F)(F)F)cc(C(F)(F)F)c2)N1` [Compound 12, (5S,6S)-6-(3,5-Bis(trifluoromethyl)benzyloxymethyl)-4-(5-oxo-4,5-dihydro-1H-(1,2,4)triazol-3-ylmethyl)-5-phenylpiperazin-2-one] has an IC50 (human NK1 receptors) of 1.5 nM.
With `CN1C(=O)CN(Cc2n[nH]c(=O)[nH]2)[C@@H](c2ccccc2)[C@H]1COCc1cc(C(F)(F)F)cc(C(F)(F)F)c1` [Compound 26, (5S,6S)-6-(3,5-Bis(trifluoromethyl)benzyloxymethyl)-1-methyl-4-(5-oxo-4,5-dihydro-1H-(1,2,4)triazol-3-ylmethyl)-5-phenylpiperazin-2-one] the “amount of transuded blue dye, Mean ± S.E” value [1, 4] was 6.2 ± 1.5**, the “amount of transuded blue dye, Mean ± S.E” value [1, 5] was 1.4 ± 0.6** and the “amount of transuded blue dye, Mean ± S.E” value [1, 6] was 4.3 ± 0.9**. For the same molecule, the “amount of transuded blue dye, Mean ± S.E” value [1, 7] was 4.9 ± 1.3**, the “amount of transuded blue dye, Mean ± S.E” value [1, 8] was 11.9 ± 2.4** and the “amount of transuded blue dye, Mean ± S.E” value [2, 4] was 3.6 ± 0.7**. For the same molecule, the “amount of transuded blue dye, Mean ± S.E” value [2, 5] was 1.0 ± 0.5**, the “amount of transuded blue dye, Mean ± S.E” value [2, 6] was 2.6 ± 1.4** and the “amount of transuded blue dye, Mean ± S.E” value [2, 7] was 3.6 ± 2.6**. For the same molecule, the “amount of transuded blue dye, Mean ± S.E” value [2, 8] was 10.1 ± 3.3, the “amount of transuded blue dye, Mean ± S.E” value [3, 4] was 1.4 ± 0.9** and the “amount of transuded blue dye, Mean ± S.E” value [3, 5] was 0.1 ± 0.1**. The “amount of transuded blue dye, Mean ± S.E” value [3, 6] was 0.5 ± 0.4**, the “amount of transuded blue dye, Mean ± S.E” value [3, 7] was 1.0 ± 0.4** and the “amount of transuded blue dye, Mean ± S.E” value [3, 8] was 9.4 ± 1.6**. It also gave an IC50 (human NK1 receptors) of 0.04 nM.
Molecule `O=C1CN(Cc2n[nH]c(=O)[nH]2)[C@H](c2ccccc2)[C@H](COCc2cc(C(F)(F)F)cc(C(F)(F)F)c2)N1` [Compound 27, (5R,6R)-6-(3,5-Bis(trifluoromethyl)benzyloxymethyl)-4-(5-oxo-4,5-dihydro-1H-(1,2,4)triazol-3-ylmethyl)-5-phenylpiperazin-2-one] has a melting point of 138 to 140 °C.
Molecule `O=C1CN(Cc2n[nH]c(=O)[nH]2)[C@@H](c2ccc(F)cc2)[C@@H](COCc2cc(C(F)(F)F)cc(C(F)(F)F)c2)N1` [Compound 32, (5S,6S)-6-(3,5-Bis(trifluoromethyl)benzyloxymethyl)-5-(4-fluorophenyl)-4-(5-oxo-4,5-dihydro-1H-(1,2,4)triazol-3-ylmethyl)piperazin-2-one] has a melting point of 129 to 132 °C and an IC50 (human NK1 receptors) of 0.24 nM.
`CN1C(=O)CN(Cc2n[nH]c(=O)[nH]2)[C@@H](c2ccc(F)cc2)[C@H]1COCc1cc(C(F)(F)F)cc(C(F)(F)F)c1` [Compound 38, (5S,6S)-6-(3,5-Bis(trifluoromethyl)benzyloxymethyl)-5-(4-fluorophenyl)-1-methyl-4-(5-oxo-4,5-dihydro-1H-(1,2,4)triazol-3-ylmethyl)piperazin-2-one] gave a melting point of 212 to 213 °C.
For `O=C1CN(Cc2n[nH]c(=O)[nH]2)[C@@H](c2ccc(F)cc2)[C@@H](COCc2cc(C(F)(F)F)cc(C(F)(F)F)c2)N1` [Compound 40, (5S,6S)-6-(3,5-Bis(trifluoromethyl)benzyloxymethyl)-5-(4-fluorophenyl)-4-(5-oxo-4,5-dihydro-1H-(1,2,4)triazol-3-ylmethyl)piperazin-2-one], the melting point was 138 to 140 °C.
With `COc1ccccc1CN(C[C@@H](Cc1c[nH]c2ccccc12)NC(=O)CN1CCC(N2CCCCC2)CC1)C(C)=O` [LY-303870, reference compound] the “amount of transuded blue dye, Mean ± S.E” value [1, 4] was 6.3 ± 2.1**, the “amount of transuded blue dye, Mean ± S.E” value [1, 5] was 7.8 ± 2.5** and the “amount of transuded blue dye, Mean ± S.E” value [1, 6] was 17.0 ± 3.4. The “amount of transuded blue dye, Mean ± S.E” value [1, 9] was 12.2 ± 2.2**, the “amount of transuded blue dye, Mean ± S.E” value [1, 7] was 14.4 ± 0.9** and the “amount of transuded blue dye, Mean ± S.E” value [2, 4] was 5.3 ± 2.3**. The “amount of transuded blue dye, Mean ± S.E” value [2, 5] was 5.8 ± 1.9**, the “amount of transuded blue dye, Mean ± S.E” value [2, 6] was 14.5 ± 5.0 and the “amount of transuded blue dye, Mean ± S.E” value [2, 9] was 11.1 ± 4.3. The “amount of transuded blue dye, Mean ± S.E” value [2, 7] was 10.8 ± 3.4, the “amount of transuded blue dye, Mean ± S.E” value [3, 4] was 2.0 ± 1.2** and the “amount of transuded blue dye, Mean ± S.E” value [3, 5] was 5.0 ± 2.2**. The “amount of transuded blue dye, Mean ± S.E” value [3, 6] was 12.0 ± 3.2*, the “amount of transuded blue dye, Mean ± S.E” value [3, 9] was 7.7 ± 1.8** and the “amount of transuded blue dye, Mean ± S.E” value [3, 7] was 13.6 ± 1.1**.
